From ChEMBL document CHEMBL1201862, “PubChem BioAssay data set” (2004)
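Dose response: 5 concentrations. Exposure: 48 h. Format: 96-well plates. Endpoint: linear interpolation; highest concentration if not reached. Here, GI50 denotes the concentration required for 50% inhibition of growth.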 Calls of active or inactive are those of the source. No stated cut-off is given here; in the data, active = GI50 up to about 1.1 µM and inactive = higher.

Assays:
Experiment in all cases: DTP human tumour cell line panel, 48 h
786-0 = system: 786-0
SNB-19 = system: SNB-19
HCT-15 = system: HCT-15
OVCAR-5 = system: OVCAR-5
HCC 2998 = system: HCC 2998
HL-60 = system: HL-60
ACHN = system: ACHN
A549 = system: A549
U-251 = system: U-251
SK-OV-3 = system: SK-OV-3
EKVX = system: EKVX
COLO 205 = system: COLO 205
SN12C = system: SN12C
SF-268 = system: SF-268

Row | SMILES | GI50 (786-0) | GI50 (SNB-19) | GI50 (HCT-15) | GI50 (OVCAR-5) | GI50 (HCC 2998) | GI50 (HL-60) | GI50 (ACHN) | GI50 (A549) | GI50 (U-251) | GI50 (SK-OV-3) | GI50 (EKVX) | GI50 (COLO 205) | GI50 (SN12C) | GI50 (SF-268)
1 | CC1=CC2=C(C)C3(CC3)[C@@](C)(O)C(=O)C2=C1 | 0.217 µM (active) | 0.243 µM (active) | 0.193 µM | 0.239 µM (active) | 0.178 µM (active) | 0.135 µM (active) | 0.176 µM (active) | 0.314 µM (active) | 0.209 µM (active) | 0.293 µM (active) | 0.535 µM (active) | 0.221 µM (active) | 0.231 µM (active) | 0.133 µM (active)
2 | O=C1OC2C(O)COC2(O)C1(O)Cc1c[nH]c2ccccc12.O=C1OC2C(O)COC2(OCc2c[nH]c3ccccc23)C1O (stereo not drawn) | > 100 µM (inactive) | > 100 µM (inactive) | > 100 µM | > 100 µM (inactive) |  | > 100 µM (inactive) |  | > 100 µM (inactive) | > 100 µM (inactive) | > 100 µM (inactive) | > 100 µM (inactive) | > 100 µM (inactive) | > 100 µM (inactive) | > 100 µM (inactive)
3 | O=C(O)COc1ccc(C(=O)/C(SS/C(C(=O)c2ccc(OCC(=O)O)c(Cl)c2Cl)=C2\C=C(c3ccccc3Cl)SS2)=C2/C=C(c3ccccc3Cl)SS2)c(Cl)c1Cl | 19.8 µM (inactive) | 22.6 µM (inactive) | 21.7 µM | > 70.3 µM (inactive) | 57.1 µM (inactive) | 2.59 µM (inactive) | 23.5 µM (inactive) | 46.8 µM (inactive) | 6.61 µM (inactive) | 44.1 µM (inactive) | 40.6 µM (inactive) | 17.6 µM (inactive) | 30.6 µM (inactive) | 22 µM (inactive)
4 | CCc1cccc(C)c1NC(=O)CC1C(=O)Nc2ccccc2S1(=O)=O (stereo not drawn) | 15.7 µM (inactive) | 27.5 µM (inactive) | 12 µM | 23.6 µM (inactive) | 16.8 µM (inactive) | 12.1 µM (inactive) | 18.6 µM (inactive) | 18.6 µM (inactive) | 16.9 µM (inactive) |  | 15.5 µM (inactive) |  | 20.8 µM (inactive) | 20.8 µM (inactive)
5 | COC(=O)CCC(NC(=S)N/N=C(\C)c1cccs1)C(=O)OC (stereo not drawn) | > 100 µM (inactive) | > 100 µM (inactive) | > 100 µM | > 100 µM (inactive) | > 100 µM (inactive) |  | > 100 µM (inactive) | > 100 µM (inactive) | > 100 µM (inactive) | > 100 µM (inactive) | > 100 µM (inactive) | > 100 µM (inactive) | > 100 µM (inactive) | > 100 µM (inactive)
6 | Cc1nc2ccccc2c(=O)n1/N=C(\N=N\c1ccccc1Cl)c1ccccc1Cl | 48 µM (inactive) |  | 57.1 µM |  |  | 27.9 µM (inactive) | 50.5 µM (inactive) | > 100 µM (inactive) | 48.5 µM (inactive) | 22.9 µM (inactive) | 28.8 µM (inactive) | > 100 µM (inactive) | 38.8 µM (inactive) | 35.1 µM (inactive)
7 | Cc1nc2c(s/c(=N\N)n2-c2ccccc2)c(=O)[nH]1 | > 100 µM (inactive) | > 100 µM (inactive) | > 100 µM | > 100 µM (inactive) | > 100 µM (inactive) | > 100 µM (inactive) | > 100 µM (inactive) | > 100 µM (inactive) | > 100 µM (inactive) | > 100 µM (inactive) | > 100 µM (inactive) | > 100 µM (inactive) | > 100 µM (inactive) | > 100 µM (inactive)
8 | CCCN1CN(C(C(=O)N[C@@H]2C(=O)N3C(C(=O)O)=C(C)CSC23)c2ccccc2)CSC1=S (stereo partly drawn) | > 100 µM (inactive) | > 100 µM (inactive) | 42 µM | > 100 µM (inactive) |  | 86.9 µM (inactive) | > 100 µM (inactive) | > 100 µM (inactive) | > 100 µM (inactive) | > 100 µM (inactive) | > 100 µM (inactive) | 47.1 µM (inactive) | > 100 µM (inactive) | > 100 µM (inactive)
9 | Nc1ccc(C(=O)N/C(=C\c2ccc3c(c2)OCO3)c2nc3c(O)nc(S)nc3[nH]2)cc1 | > 100 µM (inactive) | > 100 µM (inactive) | > 100 µM | > 100 µM (inactive) | > 100 µM (inactive) |  | > 100 µM (inactive) | > 100 µM (inactive) | > 100 µM (inactive) | > 100 µM (inactive) | > 100 µM (inactive) | > 100 µM (inactive) | > 100 µM (inactive) | > 100 µM (inactive)
10 | CCCCC(C)/C=C/C(O)=C1\C(=O)O/C(=C\C(=O)O)C1=O (stereo not drawn) | > 100 µM (inactive) | > 100 µM (inactive) | > 100 µM | > 100 µM (inactive) |  | > 100 µM (inactive) | > 100 µM (inactive) | > 100 µM (inactive) | > 100 µM (inactive) | > 100 µM (inactive) | > 100 µM (inactive) | > 100 µM (inactive) | > 100 µM (inactive) | 
11 | O=C(NO)C(=O)Nc1ccc(Cl)cc1[N+](=O)[O-] | > 100 µM (inactive) | > 100 µM (inactive) | > 100 µM | > 100 µM (inactive) | > 100 µM (inactive) | > 100 µM (inactive) | > 100 µM (inactive) | > 100 µM (inactive) | > 100 µM (inactive) | > 100 µM (inactive) | 33.9 µM (inactive) | > 100 µM (inactive) | > 100 µM (inactive) | > 100 µM (inactive)
12 | COc1ccc2[nH]c3c(C)c4cc[n+](COC(=O)c5ccccc5)cc4c(C)c3c2c1 | 0.138 µM (active) | 0.713 µM (active) |  | 0.879 µM (active) |  | 0.628 µM (active) | 0.101 µM (active) | 0.269 µM (active) | 0.392 µM (active) | 1.22 µM (inactive) |  |  | 0.197 µM (active) | 0.286 µM (active)
13 | CCOc1ccc(NC(=O)C(=O)CC(=O)c2c[n+]([O-])c3cc(C)c(C)cc3[n+]2[O-])cc1 | > 100 µM (inactive) | > 100 µM (inactive) | > 100 µM | > 100 µM (inactive) | > 100 µM (inactive) | > 100 µM (inactive) | > 100 µM (inactive) | > 100 µM (inactive) | > 100 µM (inactive) | > 100 µM (inactive) | 90.8 µM (inactive) | > 100 µM (inactive) | > 100 µM (inactive) | > 100 µM (inactive)
14 | O=c1c2ccccc2nc(-c2ccccc2)n1NC(=S)Nc1ccccc1 | > 100 µM (inactive) |  | > 100 µM | > 100 µM (inactive) |  | > 100 µM (inactive) | > 100 µM (inactive) | > 100 µM (inactive) | > 100 µM (inactive) | > 100 µM (inactive) |  | > 100 µM (inactive) | > 100 µM (inactive) | > 100 µM (inactive)
15 | CC1SC2=NC3=C(c4ccccc4C3=O)C(c3ccc(F)cc3)N2C1=O (stereo not drawn) | > 100 µM (inactive) | > 100 µM (inactive) | > 100 µM | > 100 µM (inactive) | > 100 µM (inactive) | > 100 µM (inactive) | > 100 µM (inactive) | > 100 µM (inactive) | > 100 µM (inactive) | > 100 µM (inactive) | > 100 µM (inactive) | > 100 µM (inactive) | 63.7 µM (inactive) | > 100 µM (inactive)
16 | Cc1cc2oc(-c3ccccc3)c(C)c(=O)c2c2c1OC(C)(C)S2 | > 100 µM (inactive) | > 100 µM (inactive) | > 100 µM | > 100 µM (inactive) | > 100 µM (inactive) | 8.13 µM (inactive) | > 100 µM (inactive) | 90.2 µM (inactive) | > 100 µM (inactive) | > 100 µM (inactive) | > 100 µM (inactive) | 61.2 µM (inactive) | > 100 µM (inactive) | > 100 µM (inactive)
17 | COc1ccc(Nc2nc(C#N)c(N)s2)cc1 | 64 µM (inactive) | 49 µM (inactive) | 15.8 µM | > 100 µM (inactive) | > 10 µM (inactive) | 24.5 µM (inactive) | 15.7 µM (inactive) | 27.2 µM (inactive) | 34.2 µM (inactive) | 34 µM (inactive) |  | 35.9 µM (inactive) | 30.7 µM (inactive) | 19.9 µM (inactive)
18 | Nc1ccccc1[S+]([O-])c1ccccc1 (stereo not drawn) | > 100 µM (inactive) | > 100 µM (inactive) | > 100 µM | > 100 µM (inactive) | > 100 µM (inactive) | > 100 µM (inactive) | > 100 µM (inactive) | > 100 µM (inactive) | > 100 µM (inactive) | > 100 µM (inactive) | > 100 µM (inactive) | > 100 µM (inactive) | > 100 µM (inactive) | > 100 µM (inactive)
19 | O=C(O)NC(c1ccccc1)C(NC(=O)c1ccccc1)c1ccccc1 (stereo not drawn) | > 100 µM (inactive) | > 100 µM (inactive) | > 100 µM | > 100 µM (inactive) |  |  | > 100 µM (inactive) | > 100 µM (inactive) | > 100 µM (inactive) |  | > 100 µM (inactive) | > 100 µM (inactive) | > 100 µM (inactive) | > 100 µM (inactive)
20 | CCOC(=O)C(C(=O)OCC)P(=S)(S)c1ccccc1 (stereo not drawn) | > 100 µM (inactive) | > 100 µM (inactive) |  | > 100 µM (inactive) |  | > 100 µM (inactive) | > 100 µM (inactive) | > 100 µM (inactive) | > 100 µM (inactive) | > 100 µM (inactive) | > 100 µM (inactive) | > 100 µM (inactive) | > 100 µM (inactive) | > 100 µM (inactive)
21 | OC1CCC[C@@H]1Sc1ccccc1 (stereo partly drawn) | > 100 µM (inactive) | > 100 µM (inactive) | > 100 µM |  | > 100 µM (inactive) | > 100 µM (inactive) | > 100 µM (inactive) | > 100 µM (inactive) | > 100 µM (inactive) | > 100 µM (inactive) | > 100 µM (inactive) | > 100 µM (inactive) | > 100 µM (inactive) | > 100 µM (inactive)
